We go through 16 compounds from patent publication US10828315B2 (Madrigal Pharmaceuticals, Inc., priority 2013, dated 2020).

For data set [1] the following is noted: mouse, plasma, 1 h, 10 µM.
Description: (§1) 150 ng/mL solution of SDC-TRAP-0002 in methanol was prepared using the internal standard spiking solution. This solution was used to precipitate all plasma samples in the study. 200 μL was pipetted into a 96 deepwell plate over dry ice. 10 μL of 1 mM stock in DMSO was added to a 1.5 mL microfuge tube, then 990 μL of plasma. Samples were mixed by vortex, then 50 μL of each sample was added in triplicate to a 96-well plate containing internal standard solution. This was designated the 0 hour time point sample. 250 μL of the remaining plasma sample was added to each of four 96 deepwell plates—one per time point. Samples were incubated at 37° C. with gentle shaking for 0.25, 0.5, and 1 hour. After each time point, one plate of each sample was removed from the shaker and placed on wet ice for approximately 2 minutes. 50 μL at plasma aliquots (in triplicate) were added to the deepwell plate containing internal standard solution. After the last time point was extracted, the 96 deepwell plate was vortexed, then centrifuged at 2-8° C. 150 μL of supernatant was collected and 25 μL at of water was added. Samples were mixed and analyzed by LC-MS/MS.
(§2) 990 μL mouse plasma aliquots from a common stock were spiked with 10 μL of 1 mM stock of one of seven SDC-TRAP samples identified in the table below. Each sample was mixed and divided into 250 μL aliquots, each representing time points 0, 15 minutes, 30 minutes or 1 hour. At the prescribed time point, 3×50 μL samples were each mixed with 200 μL of methanol containing internal standard and held on dry ice until all time point samples were extracted. The samples collectively were vortex mixed for 1.5 minutes at 1500 rpm, then centrifuged at 4400 rpm for 10 minutes at 8° C.
For data set [2] the following is noted: Tissue Distribution Data for SDC-TRAP-0056.
A short description of data set [3]: Mouse plasma stability protocol, up to 1 h (Examples 16-18).
Description: as §1, §2
In a further data set the test system is HER2. The experiment in a line: HER2 degradation assay with BT-474 cell line (Example 12, FACS). It is filed as cell-based, human.
[4] abbreviates: % Remaining of parent after 1 h incubation in mouse plasma at 37° C. (10 μM).

Read-outs that look alike come from different tables or passages of the source.

Consider `CCc1c2c(nc3ccc(OS(=O)(=O)c4cccc(C(=O)N5CCN(Cc6ccc(-n7c(O)nnc7-c7cc(C(C)C)c(O)cc7O)cc6)CC5)c4)cc13)-c1cc3c(c(=O)n1C2)COC(=O)C3(O)CC` (stereo not shown) [SDC-TRAP-0389, 4,11-diethyl-4-hydroxy-3,14-dioxo-3,4,12,14-tetrahydro-1H-pyrano[3′,4′:6,7]indolizino[1,2-b]quinolin-9-yl 3-(4-(4-(3-(2,4-dihydroxy-5-isopropylphenyl)-5-hydroxy-4H-1,2,4-triazol-4-yl)benzyl)piperazine-1-carbonyl)benzenesulfonate], for which the “% Remaining (1 h)” value in data set [1] is given as 77.7%.
As to `COc1cc(O)c(-c2nnc(C(=O)NC(C)C)n2-c2ccc(CN3CCC(C(=O)Nc4cccc5c4CN(C4CCC(=O)NC4=O)C5=O)CC3)cc2)cc1C(C)C` (stereo not shown) [SDC-TRAP-0115, N-(2-(2,6-dioxopiperidin-3-yl)-1-oxoisoindolin-4-yl)-1-(4-(3-(2-hydroxy-5-isopropyl-4-methoxyphenyl)-5-(isopropylcarbamoyl)-4H-1,2,4-triazol-4-yl)benzyl)piperidine-4-carboxamide], the “% Remaining (1 h)” value in data set [1] is listed as 85.9%.
In the case of `CCc1c2c(nc3ccc(O)cc13)-c1cc3c(c(=O)n1C2)COC(=O)C3(CC)OC(=O)CN1CCN(c2ccc(-n3c(O)nnc3-c3cc(C(C)C)c(O)cc3O)cc2)CC1` (stereo not shown) [SDC-TRAP-0056, 4,11-diethyl-9-hydroxy-3,14-dioxo-3,4,12,14-tetrahydro-1H-pyrano[3′,4′:6,7]indolizino[1,2-b]quinolin-4-yl 2-(4-(4-(3-(2,4-dihydroxy-5-isopropylphenyl)-5-hydroxy-4H-1,2,4-triazol-4-yl)phenyl)piperazin-1-yl)acetate], the “Plasma Conc.” value in data set [2] (Time (h) 0.083) is 1220 µM; in data set [2] (Time (h) 6), 2.06 µM; in data set [2] (Time (h) 12) it was 0.382 µM; in data set [2] (Time (h) 24), 0.0343 µM; in data set [2] (Time (h) 48), “BQL”. For the same compound, the “Tumor Conc.” value in data set [2] (Time (h) 0.083) is recorded as 6.40 nmol/g of tissue; in data set [2] (Time (h) 6) it was 2.65 nmol/g of tissue; in data set [2] (Time (h) 12) it was 0.746 nmol/g of tissue; in data set [2] (Time (h) 24) it was “BQL”; in data set [2] (Time (h) 48), “BQL”. Moreover, the entries for the “Tumor/Plasma Ratio” value in data set [2] (Time (h) 0.083), in data set [2] (Time (h) 6) and in data set [2] (Time (h) 12) were 0.00525, 1.28 and 1.95, respectively. In addition, the “% Remaining (1 h)” value in data set [3] (setting [4]) is given as 78.4%. Moreover, the “% Remaining (1 h, 37° C.)” value in data set [3] (mouse plasma, 37° C.) worked out at 78%. The same compound showed an IC50 in the data set on HER2 of 1.27 µM.
For the compound `CCc1c2c(nc3ccc(OS(=O)(=O)c4ccc(C(=O)N5CCC(CCn6ccc7cc(-n8c(O)nnc8-c8cc(C(C)C)c(O)cc8O)ccc76)CC5)cc4)cc13)-c1cc3c(c(=O)n1C2)COC(=O)C3(O)CC` (stereo not shown) [SDC-TRAP-0390, 4,11-diethyl-4-hydroxy-3,14-dioxo-3,4,12,14-tetrahydro-1H-pyrano[3′,4′:6,7]indolizino[1,2-b]quinolin-9-yl 4-(4-(2-(5-(3-(2,4-dihydroxy-5-isopropylphenyl)-5-hydroxy-4H-1,2,4-triazol-4-yl)-1H-indol-1-yl)ethyl)piperidine-1-carbonyl)benzenesulfonate], the “% Remaining (1 h)” value in data set [1] came out at 92.5%.
On the same count and under the same terms, the same measure for `CC(C)c1cc(-c2nnc(O)n2-c2ccc3c(ccn3CCCC3CCN(C(=O)c4ncn5c(=O)n(C)nnc45)CC3)c2)c(O)cc1O` [SDC-TRAP-0345, 8-(4-(3-(5-(3-(2,4-dihydroxy-5-isopropylphenyl)-5-hydroxy-4H-1,2,4-triazol-4-yl)-1H-indol-1-yl)propyl)piperidine-1-carbonyl)-3-methylimidazo[5,1-d][1,2,3,5]tetrazin-4(3H)-one]: 63.8%.
On the same count and under the same terms, the same measure for `CCNC(=O)c1nnc(-c2cc(C(C)C)c(O)cc2O)n1-c1ccc(CN2CCC(C(=O)N3CCC(COC(=O)Nc4cccc5c4CN(C4CCC(=O)NC4=O)C5=O)CC3)CC2)cc1` (stereo not shown) [SDC-TRAP-0124, (1-(1-(4-(3-(2,4-Dihydroxy-5-isopropylphenyl)-5-(ethylcarbamoyl)-4H-1,2,4-triazol-4-yl)benzyl)piperidine-4-carbonyl)piperidin-4-yl)methyl (2-(2,6-dioxopiperidin-3-yl)-1-oxoisoindolin-4-yl)carbamate]: 112%; for `CCNC(=O)c1nnc(-c2cc(C(C)C)c(O)cc2O)n1-c1ccc(CN2CCC(C(=O)N3CCC(OC(=O)Nc4cccc5c4CN(C4CCC(=O)NC4=O)C5=O)CC3)CC2)cc1` (stereo not shown) [SDC-TRAP-0123, 1-(1-(4-(3-(2,4-Dihydroxy-5-isopropylphenyl)-5-(ethylcarbamoyl)-4H-1,2,4-triazol-4-yl)benzyl)piperidine-4-carbonyl)piperidin-4-yl (2-(2,6-dioxopiperidin-3-yl)-1-oxoisoindolin-4-yl)carbamate]: 95.6%.
Same read-out and setting: the same measure for `CC(C)c1cc(-c2nnc(O)n2-c2ccc(CC(=O)N(C)CCOC(=O)Nc3cccc4c3CN(C3CCC(=O)NC3=O)C4=O)cc2)c(O)cc1O` (stereo not shown) [SDC-TRAP-0127, 2-(2-(4-(3-(2,4-dihydroxy-5-isopropylphenyl)-5-hydroxy-4H-1,2,4-triazol-4-yl)phenyl)-N-methylacetamido)ethyl(2-(2,6-dioxopiperidin-3-yl)-1-oxoisoindolin-4-yl)carbamate]: 87.3%; for `CCNC(=O)c1nnc(-c2cc(C(C)C)c(O)cc2O)n1-c1ccc(Oc2ccc(C(=O)N3CCC(COC(=O)Nc4cccc5c4CN(C4CCC(=O)NC4=O)C5=O)CC3)cc2)cc1` (stereo not shown) [SDC-TRAP-0125, (1-(4-(4-(3-(2,4-Dihydroxy-5-isopropylphenyl)-5-(ethylcarbamoyl)-4H-1,2,4-triazol-4-yl)phenoxy)benzoyl)piperidin-4-yl)methyl (2-(2,6-dioxopiperidin-3-yl)-1-oxoisoindolin-4-yl)carbamate]: 99.4%; for `CO[C@H]1/C=C\C=C(/C)C(=O)NC2=CC(=O)C(NCCCCCCNC(=O)c3ncn4c(=O)n(C)nnc34)=C(C[C@@H](C)C[C@H](OC)[C@@H](O)[C@@H](C)/C=C(\C)[C@@H]1OC(N)=O)C2=O` [SDC-TRAP-0267, (4E,6Z,8S,9S,10E,12S,13S,14S,16R)-13-hydroxy-8,14-dimethoxy-4,10,12,16-tetramethyl-19-((6-(3-methyl-4-oxo-3,4-dihydroimidazo[5,1-d][1,2,3,5]tetrazine-8-carboxamidohexyl)amino)-3,20,22-trioxo-2-azabicyclo[16.3.1]docosa-1(21),4,6,10,18-pentaen-9-yl carbamate]: 63.2%.
With `CCNC(=O)c1nnc(-c2cc(C(C)C)c(O)cc2O)n1-c1ccc(CN2CCC(C(=O)N[C@H](C(=O)Nc3cccc4c3CN(C3CCC(=O)NC3=O)C4=O)C(C)C)CC2)cc1` (stereo partly drawn) [SDC-TRAP-0163, 1-(4-(3-(2,4-dihydroxy-5-isopropylphenyl)-5-(ethylcarbamoyl)-4H-1,2,4-triazol-4-yl)benzyl)-N-((2S)-1-((2-(2,6-dioxopiperidin-3-yl)-1-oxoisoindolin-4-yl)amino)-3-methyl-1-oxobutan-2-yl)piperidine-4-carboxamide], the “% Remaining (1 h)” value in data set [1] is 93.0%.
The same measure, in the same setting: for `CCNC(=O)c1nnc(-c2cc(C(C)C)c(O)cc2O)n1-c1ccc2c(c1)CN(C(=O)c1ccc(S(=O)(=O)Oc3ccc4nc5c(c(CC)c4c3)Cn3c-5cc4c(c3=O)COC(=O)C4(O)CC)cc1)C2` (stereo not shown) [SDC-TRAP-0393, 4,11-diethyl-4-hydroxy-3,14-dioxo-3,4,12,14-tetrahydro-1H-pyrano[3′,4′:6,7]indolizino[1,2-b]quinolin-9-yl 4-(5-(3-(2,4-dihydroxy-5-isopropylphenyl)-5-(ethylcarbamoyl)-4H-1,2,4-triazol-4-yl)isoindoline-2-carbonyl)benzenesulfonate] the value was 47.8%.
Still for that read-out and setting: the same measure for `CCNC(=O)c1nnc(-c2cc(C(C)C)c(O)cc2O)n1-c1ccc(CN2CCC(C(=O)N3CCC(n4cc(-c5cnc(N)c(O[C@H](C)c6c(Cl)ccc(F)c6Cl)c5)cn4)CC3)CC2)cc1` [SDC-TRAP-0134, (R)-4-(4-((4-(4-(4-(6-amino-5-(1-(2,6-dichloro-3-fluorophenyl)ethoxy)pyridin-3-yl)-1H-pyrazol-1-yl)piperidine-1-carbonyl)piperidin-1-yl)methyl)phenyl)-5-(2,4-dihydroxy-5-isopropylphenyl)-N-ethyl-4H-1,2,4-triazole-3-carboxamide]: 108%.
Take `CCNC(=O)c1nnc(-c2cc(C(C)C)c(O)cc2O)n1-c1ccc(OC2CCN(C(=O)[C@@H]3CCCN3C(=O)Oc3ccc4nc5c(c(CC)c4c3)Cn3c-5cc4c(c3=O)COC(=O)[C@]4(O)CC)CC2)cc1` [SDC-TRAP-0209]: the “% Remaining (1 h)” value in data set [3] (setting [4]) was determined as 67.1%. Moreover, in data set [3] (mouse plasma, 37° C.), the “% Remaining (1 h, 37° C.)” value is 67.1%. Further, in the data set with HER2, the midpoint of inhibition, the IC50, lay at 1.13 µM.
In the case of `CCc1c2c(nc3ccc(OC(=O)N4CCC(Cn5ccc6cc(-n7c(O)nnc7-c7cc(C(C)C)c(O)cc7O)ccc65)CC4)cc13)-c1cc3c(c(=O)n1C2)COC(=O)C3(O)CC` (stereo not shown) [SDC-TRAP-0186, 4,11-diethyl-4-hydroxy-3,14-dioxo-3,4,12,14-tetrahydro-1H-pyrano[3′,4′:6,7]indolizino[1,2-b]quinolin-9-yl 4-((5-(3-(2,4-dihydroxy-5-isopropylphenyl)-5-hydroxy-4H-1,2,4-triazol-4-yl)-1H-indol-1-yl)methyl)piperidine-1-carboxylate], the “% Remaining (1 h)” value in data set [3] (setting [4]) is on record as 57.9%; in data set [3] (mouse plasma, 37° C., 10 μM), 57.9%. In addition, the “% Remaining (1 h, 37° C.)” value in data set [3] (mouse plasma, 37° C.) is given as 57.9%. In the data set on HER2, this compound displayed an IC50 of 1.62 µM.
As to `Cc1cc(COC(=O)Nc2cccc3c2CN(C2CCC(=O)NC2=O)C3=O)cc(C)c1OC(=O)N1CCN(Cc2ccc(-n3c(O)nnc3-c3cc(C(C)C)c(O)cc3O)cc2F)CC1` (stereo not shown) [SDC-TRAP-0182, 4-((((2-(2,6-dioxopiperidin-3-yl)-1-oxoisoindolin-4-yl)carbamoyl)oxy)methyl)-2,6-dimethylphenyl 4-(4-(3-(2,4-dihydroxy-5-isopropylphenyl)-5-hydroxy-4H-1,2,4-triazol-4-yl)-2-fluorobenzyl)piperazine-1-carboxylate], the “% Remaining (1 h)” value in data set [3] (setting [4]) came out at 91.9%. The compound also had an IC50 in the data set on HER2 of 0.359 µM.

As a reminder, the IC50 is the concentration needed to halve the response being measured.
